Reference: ChEMBL document CHEMBL5346968, “Exploring Structural Determinants of Bias among D4 Subtype-Selective Dopamine Receptor Agonists” (J Med Chem, 2023)
pKi: −log10 of the molar value.

Legend:
[1] = target: T1, D(2) dopamine receptor (Homo sapiens, UniProt P14416); assay: Displacement of [3H]-N-methylspiperone from human dopmaine D2L receptor expressed in CHO cell membrane assessed as inhibition constant by competition binding assay; type: cell membranes
[2] = target: T1, D(2) dopamine receptor; assay: Displacement of [3H]-N-methylspiperone from human dopmaine D2S receptor expressed in CHO cell membrane assessed as inhibition constant by competition binding assay; type: cell membranes
[3] = target: D(3) dopamine receptor (Homo sapiens, UniProt P35462); assay: Displacement of [3H]-N-methylspiperone from human dopmaine D3 receptor expressed in HEK293T cells assessed as inhibition constant by competition binding assay; type: cell-based
D(3) dopamine receptor, sequence (P35462 whole entry): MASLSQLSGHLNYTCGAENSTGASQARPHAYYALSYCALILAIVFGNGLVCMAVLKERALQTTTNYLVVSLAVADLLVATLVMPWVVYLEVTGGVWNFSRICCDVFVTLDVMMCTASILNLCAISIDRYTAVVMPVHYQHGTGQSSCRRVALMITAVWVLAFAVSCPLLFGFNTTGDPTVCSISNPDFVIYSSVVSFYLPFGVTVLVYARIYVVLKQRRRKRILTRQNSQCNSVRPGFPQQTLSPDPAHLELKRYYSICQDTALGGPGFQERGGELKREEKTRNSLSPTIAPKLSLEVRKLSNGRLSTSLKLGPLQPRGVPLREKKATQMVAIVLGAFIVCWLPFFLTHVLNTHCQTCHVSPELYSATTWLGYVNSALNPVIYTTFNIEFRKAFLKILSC

[4] = target: D(1A) dopamine receptor (Homo sapiens, UniProt P21728); assay: Displacement of [3H]SCH23390 from human dopamine D1 receptor expressed in HEK293T cells assessed as inhibition constant by competition binding assay; type: cell-based
D(1A) dopamine receptor, sequence (P21728 whole entry): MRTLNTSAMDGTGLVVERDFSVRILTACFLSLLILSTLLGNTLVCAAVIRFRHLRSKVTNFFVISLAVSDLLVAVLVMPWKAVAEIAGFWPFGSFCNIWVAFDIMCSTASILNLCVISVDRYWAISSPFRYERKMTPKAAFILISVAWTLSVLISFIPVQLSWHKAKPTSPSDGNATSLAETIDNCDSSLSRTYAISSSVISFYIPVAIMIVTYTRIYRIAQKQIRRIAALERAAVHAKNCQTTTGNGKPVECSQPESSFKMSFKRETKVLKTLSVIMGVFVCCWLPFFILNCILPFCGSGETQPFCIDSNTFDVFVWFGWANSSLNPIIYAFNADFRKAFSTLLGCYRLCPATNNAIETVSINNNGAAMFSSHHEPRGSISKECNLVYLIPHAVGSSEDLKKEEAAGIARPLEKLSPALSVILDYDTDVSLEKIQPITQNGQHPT

[5] = target: D(1B) dopamine receptor (Homo sapiens, UniProt P21918); assay: Displacement of [3H]SCH23390 from human dopamine D5 receptor expressed in HEK293T cells assessed as inhibition constant by competition binding assay; type: cell-based
D(1B) dopamine receptor, sequence (P21918 whole entry): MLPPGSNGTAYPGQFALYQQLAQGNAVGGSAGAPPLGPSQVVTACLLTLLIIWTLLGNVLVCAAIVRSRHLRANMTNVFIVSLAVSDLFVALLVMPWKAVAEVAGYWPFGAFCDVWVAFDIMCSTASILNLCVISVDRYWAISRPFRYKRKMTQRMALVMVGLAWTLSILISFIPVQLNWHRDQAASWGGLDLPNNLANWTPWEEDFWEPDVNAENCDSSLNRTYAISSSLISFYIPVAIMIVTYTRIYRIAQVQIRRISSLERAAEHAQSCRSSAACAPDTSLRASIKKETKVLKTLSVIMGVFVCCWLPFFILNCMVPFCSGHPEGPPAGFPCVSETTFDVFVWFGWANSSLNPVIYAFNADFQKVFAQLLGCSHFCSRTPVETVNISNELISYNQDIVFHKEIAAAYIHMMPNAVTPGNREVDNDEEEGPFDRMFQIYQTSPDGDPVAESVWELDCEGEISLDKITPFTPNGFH

[6] = target: T2, Alpha-1A adrenergic receptor (Homo sapiens, UniProt P35348); assay: Displacement of [3H]prazosin from adrenergic alpha 1A receptor (unknown origin) expressed in HEK293T cells assessed as inhibition constant by competition binding assay; type: cell-based
T2 sequence (P35348 whole entry): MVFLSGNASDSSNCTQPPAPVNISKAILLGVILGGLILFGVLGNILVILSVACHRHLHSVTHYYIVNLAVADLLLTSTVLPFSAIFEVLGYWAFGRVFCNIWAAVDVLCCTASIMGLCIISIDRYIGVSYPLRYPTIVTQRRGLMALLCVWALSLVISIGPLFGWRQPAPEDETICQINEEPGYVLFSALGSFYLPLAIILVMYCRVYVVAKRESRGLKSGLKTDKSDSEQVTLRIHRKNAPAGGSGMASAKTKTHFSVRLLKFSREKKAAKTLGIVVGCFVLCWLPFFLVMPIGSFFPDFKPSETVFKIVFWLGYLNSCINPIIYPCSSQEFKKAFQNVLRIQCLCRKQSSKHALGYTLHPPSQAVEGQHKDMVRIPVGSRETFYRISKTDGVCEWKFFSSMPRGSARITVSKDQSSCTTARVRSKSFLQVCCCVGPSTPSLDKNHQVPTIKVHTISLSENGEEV

[7] = target: T3, Alpha-2A adrenergic receptor (Homo sapiens, UniProt P08913); assay: Displacement of [3H]RX821002 from adrenergic alpha 2A receptor (unknown origin) expressed in HEK293T cells assessed as inhibition constant by competition binding assay; type: cell-based
T3 sequence (P08913 whole entry): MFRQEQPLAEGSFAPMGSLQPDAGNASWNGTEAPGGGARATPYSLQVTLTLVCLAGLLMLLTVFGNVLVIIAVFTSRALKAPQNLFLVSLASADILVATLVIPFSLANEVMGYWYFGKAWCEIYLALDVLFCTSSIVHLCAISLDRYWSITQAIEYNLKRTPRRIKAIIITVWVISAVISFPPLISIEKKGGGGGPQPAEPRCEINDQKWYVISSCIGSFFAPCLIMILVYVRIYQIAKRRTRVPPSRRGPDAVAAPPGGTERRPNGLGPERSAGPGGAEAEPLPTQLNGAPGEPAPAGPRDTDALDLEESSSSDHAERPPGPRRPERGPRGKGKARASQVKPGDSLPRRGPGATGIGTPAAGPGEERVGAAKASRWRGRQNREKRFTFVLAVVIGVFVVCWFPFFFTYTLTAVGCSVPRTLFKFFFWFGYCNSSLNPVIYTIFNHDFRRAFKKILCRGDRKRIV

[8] = target: T4, 5-hydroxytryptamine receptor 1A (Homo sapiens, UniProt P08908); assay: Displacement of [3H][…] from 5-HT1A receptor (unknown origin) expressed in HEK293T cells assessed as inhibition constant by competition binding assay; type: cell-based
T4 sequence (P08908 whole entry): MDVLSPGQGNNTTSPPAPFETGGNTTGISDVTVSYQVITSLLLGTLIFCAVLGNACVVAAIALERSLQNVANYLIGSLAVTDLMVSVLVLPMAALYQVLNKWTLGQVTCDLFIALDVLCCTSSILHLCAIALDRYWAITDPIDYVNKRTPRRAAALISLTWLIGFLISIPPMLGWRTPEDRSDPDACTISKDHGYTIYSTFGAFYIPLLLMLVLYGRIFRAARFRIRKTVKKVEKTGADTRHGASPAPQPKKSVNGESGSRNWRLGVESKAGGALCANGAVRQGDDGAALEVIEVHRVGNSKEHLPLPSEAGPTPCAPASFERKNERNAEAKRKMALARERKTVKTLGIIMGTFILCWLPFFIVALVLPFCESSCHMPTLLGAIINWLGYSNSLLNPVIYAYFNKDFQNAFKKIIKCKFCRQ

[9] = target: 5-hydroxytryptamine receptor 2A (Homo sapiens, UniProt P28223); assay: Displacement of [3H]ketanserin from 5-HT2A receptor (unknown origin) expressed in HEK293T cells assessed as inhibition constant by competition binding assay; type: cell-based
5-hydroxytryptamine receptor 2A, sequence (P28223 whole entry): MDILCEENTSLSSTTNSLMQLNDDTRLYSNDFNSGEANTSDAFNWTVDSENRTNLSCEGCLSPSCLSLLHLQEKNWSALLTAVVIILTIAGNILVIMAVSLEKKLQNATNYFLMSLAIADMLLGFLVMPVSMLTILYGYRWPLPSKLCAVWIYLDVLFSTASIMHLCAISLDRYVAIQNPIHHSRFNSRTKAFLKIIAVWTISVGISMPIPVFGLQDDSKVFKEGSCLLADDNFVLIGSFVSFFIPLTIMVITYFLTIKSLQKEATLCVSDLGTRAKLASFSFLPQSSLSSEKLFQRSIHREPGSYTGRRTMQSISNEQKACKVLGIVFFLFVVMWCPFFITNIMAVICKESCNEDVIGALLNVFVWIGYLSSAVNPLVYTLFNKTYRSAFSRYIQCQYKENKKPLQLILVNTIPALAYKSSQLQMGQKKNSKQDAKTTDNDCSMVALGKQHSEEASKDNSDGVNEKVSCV

[10] = Drug metabolism in pooled rat liver microsomes assessed as O-demethylation mediated metabolite formation at 40 uM measured upto 60 mins in the presence of NADPH by HPLC(UV) analysis; type: ADME, Microsome; details: 1 h
[11] = Drug metabolism in pooled rat liver microsomes assessed as hydroxylation mediated metabolite formation at 40 uM measured upto 60 mins in the presence of NADPH by HPLC(UV) analysis; type: ADME, Microsome; details: 1 h
[12] = Permeability of the compound across basal to apical membrane in human Caco-2 cells at 50 uM incubated for 4 hrs by HPLC(UV) analysis; type: ADME, cell-based; details: caco-2, 4 h
[13] = Apparent permeability of the compound across basal to apical membrane in human Caco-2 cells at 50 uM incubated for 4 hrs by HPLC(UV) analysis; type: ADME, cell-based
[14] = Retention time of the compound by HPLC(UV) method; type: physicochemical
[15] = Permeability of the compound across basal to apical membrane in human Caco-2 cells at 5 uM incubated for 4 hrs by HPLC(UV) analysis; type: ADME, cell-based; details: caco-2, 4 h
[16] = Permeability of the compound across basal to apical membrane in human Caco-2 cells at 5 uM incubated for 4 hrs in the presence of valspodar by HPLC(UV) analysis; type: ADME, cell-based; details: caco-2, 4 h

T1 sequence (P14416 whole entry): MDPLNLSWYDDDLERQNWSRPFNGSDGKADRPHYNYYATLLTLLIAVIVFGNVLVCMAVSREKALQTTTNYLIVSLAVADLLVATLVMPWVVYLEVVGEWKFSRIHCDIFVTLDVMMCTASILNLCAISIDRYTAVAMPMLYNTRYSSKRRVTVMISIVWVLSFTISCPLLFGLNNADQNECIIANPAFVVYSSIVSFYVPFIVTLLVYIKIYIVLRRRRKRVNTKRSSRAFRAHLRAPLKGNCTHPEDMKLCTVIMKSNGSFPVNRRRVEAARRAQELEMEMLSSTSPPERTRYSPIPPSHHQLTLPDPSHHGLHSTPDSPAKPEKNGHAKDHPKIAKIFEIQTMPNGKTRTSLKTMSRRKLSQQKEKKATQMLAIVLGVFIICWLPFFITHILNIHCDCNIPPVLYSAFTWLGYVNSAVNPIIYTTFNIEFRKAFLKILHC

pKi [1]	pKi [2]	pKi [3]	pKi [4]	pKi [5]	pKi [6]	pKi [7]	pKi [8]	pKi [9]	Drug metabolism [10]	Drug metabolism [11]	permeability [12]	Papp B→A at 4 h, 50 µM [13] [×10⁻⁶ cm/s]	Retention_time [14] [min]	permeability [15] [%]	permeability [16] [%]	Compound
7.28	7.44	7.36	7.80	6.46	8.09	6.82	7.00	6.80	Metabolite_Detected	Metabolite_Detected	Impermeable	> 1	4.37	–	–	COc1ccccc1N1CCN(CCCNC(=O)Nc2ccccc2-c2ccc(-c3ccccc3)cc2)CC1
–	–	–	–	–	–	–	–	–	–	–	–	–	–	22.9	12.1	C[C@H]1O[C@@H](O[C@H]2[C@@H](O)C[C@H](O[C@H]3[C@@H](O)C[C@H](O[C@H]4CC[C@@]5(C)[C@H](CC[C@@H]6[C@@H]5C[C@@H](O)[C@]5(C)[C@@H](C7=CC(=O)OC7)CC[C@]65O)C4)O[C@@H]3C)O[C@@H]2C)C[C@H](O)[C@@H]1O [DIGOXIN]
